From PubChem BioAssay (NCI)
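Method: 48-hour compound exposure of cells in 96-well plates, five concentrations, linear interpolation of endpoints. The concentration for full growth arrest is given as TGI.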

Legend:
Experiment in all cases: inhibition of tumour cell growth, NCI panel, 48 h
[1] = system: 786-0 renal
[2] = system: A498 renal
[3] = system: A549 NSCLC
[4] = system: ACHN renal
[5] = system: BT-549 breast
[6] = system: CAKI-1 renal
[7] = system: CCRF-CEM leukemia
[8] = system: COLO 205 colon
[9] = system: DU-145 prostate
[10] = system: EKVX NSCLC
[11] = system: HCC-2998 colon
[12] = system: HCT-116 colon
[13] = system: HCT-15 colon
[14] = system: HL-60(TB) leukemia
[15] = system: HOP-62 NSCLC
[16] = system: HOP-92 NSCLC
[17] = system: HS 578T breast
[18] = system: HT29 colon
[19] = system: IGROV1 ovarian
[20] = system: K-562 leukemia
[21] = system: KM12 colon
[22] = system: LOX IMVI melanoma
[23] = system: M14 melanoma
[24] = system: MALME-3M melanoma
[25] = system: MCF7 breast
[26] = system: MDA-MB-231 breast
[27] = system: MDA-MB-435
[28] = system: MDA-N
[29] = system: MOLT-4 leukemia
[30] = system: NCI-H226 lung
[31] = system: NCI-H23 lung
[32] = system: NCI-H460 lung
[33] = system: NCI-H522 lung
[34] = system: NCI/ADR-RES ovarian
[35] = system: OVCAR-3 ovarian
[36] = system: OVCAR-4 ovarian
[37] = system: OVCAR-5 ovarian
[38] = system: OVCAR-8 ovarian
[39] = system: PC-3 prostate
[40] = system: RPMI-8226 leukemia
[41] = system: RXF 393 renal
[42] = system: SF-268 CNS
[43] = system: SF-295 CNS
[44] = system: SF-539 CNS
[45] = system: SK-MEL-2 melanoma
[46] = system: SK-MEL-28 melanoma
[47] = system: SK-MEL-5 melanoma
[48] = system: SK-OV-3 ovarian
[49] = system: SN12C renal
[50] = system: SNB-19 CNS
[51] = system: SNB-75 CNS
[52] = system: SR leukemia
[53] = system: SW-620 colon
[54] = system: T-47D breast
[55] = system: TK-10 renal
[56] = system: U251 CNS
[57] = system: UACC-257 melanoma
[58] = system: UACC-62 melanoma
[59] = system: UO-31 renal
[60] = system: DLD-1 colon
[61] = system: DMS 114 small cell lung
[62] = system: DMS 273 small cell lung
[63] = system: HOP-18 NSCLC
[64] = system: KM20L2 colon
[65] = system: M19-MEL melanoma
[66] = system: XF 498 CNS

Q: Which TGI [1] does the source give for `COc1nc2nccnc2c(=O)n1C` here?
A: > 10 µM

Q: What about the TGI [2] of the same compound?
A: > 10 µM

Q: What about the TGI [3] of the same compound?
A: > 10 µM

Q: What about the TGI [4] of the same compound?
A: > 10 µM

Q: And the TGI [5]?
A: > 10 µM

Q: And the TGI [6]?
A: > 10 µM

Q: And the TGI [7]?
A: > 10 µM

Q: And the TGI [8]?
A: > 10 µM

Q: And the TGI [9]?
A: > 10 µM

Q: What about the TGI [10] of the same compound?
A: > 10 µM

Q: What about the TGI [11] of the same compound?
A: > 10 µM

Q: What about the TGI [12] of the same compound?
A: > 10 µM

Q: What about the TGI [13] of the same compound?
A: > 10 µM

Q: What about the TGI [14] of the same compound?
A: > 10 µM

Q: And the TGI [15]?
A: > 10 µM

Q: And the TGI [16]?
A: > 10 µM

Q: And the TGI [17]?
A: > 10 µM

Q: And the TGI [18]?
A: > 10 µM

Q: And the TGI [19]?
A: > 10 µM

Q: And the TGI [20]?
A: > 10 µM

Q: What about the TGI [21] of the same compound?
A: > 10 µM

Q: And the TGI [22]?
A: > 10 µM

Q: And the TGI [23]?
A: > 10 µM

Q: What about the TGI [24] of the same compound?
A: > 10 µM

Q: And the TGI [25]?
A: > 10 µM

Q: What about the TGI [26] of the same compound?
A: > 10 µM

Q: And the TGI [27]?
A: > 10 µM

Q: And the TGI [28]?
A: > 10 µM

Q: And the TGI [29]?
A: > 10 µM

Q: And the TGI [30]?
A: > 10 µM

Q: And the TGI [31]?
A: > 10 µM

Q: What about the TGI [32] of the same compound?
A: > 10 µM

Q: What about the TGI [33] of the same compound?
A: > 10 µM

Q: And the TGI [34]?
A: > 10 µM

Q: What about the TGI [35] of the same compound?
A: > 10 µM

Q: And the TGI [36]?
A: > 10 µM

Q: What about the TGI [37] of the same compound?
A: > 10 µM

Q: What about the TGI [38] of the same compound?
A: > 10 µM

Q: And the TGI [39]?
A: > 10 µM

Q: What about the TGI [40] of the same compound?
A: > 10 µM

Q: And the TGI [41]?
A: > 10 µM

Q: What about the TGI [42] of the same compound?
A: > 10 µM

Q: What about the TGI [43] of the same compound?
A: > 10 µM

Q: What about the TGI [44] of the same compound?
A: > 10 µM

Q: And the TGI [45]?
A: > 10 µM

Q: What about the TGI [46] of the same compound?
A: > 10 µM

Q: And the TGI [47]?
A: > 10 µM

Q: And the TGI [48]?
A: > 10 µM

Q: And the TGI [49]?
A: > 10 µM

Q: And the TGI [50]?
A: > 10 µM

Q: What about the TGI [51] of the same compound?
A: > 10 µM

Q: And the TGI [52]?
A: > 10 µM

Q: And the TGI [53]?
A: > 10 µM

Q: What about the TGI [54] of the same compound?
A: > 10 µM

Q: And the TGI [55]?
A: > 10 µM

Q: And the TGI [56]?
A: > 10 µM

Q: What about the TGI [57] of the same compound?
A: > 10 µM

Q: And the TGI [58]?
A: > 10 µM

Q: What about the TGI [59] of the same compound?
A: > 10 µM

Q: `CCOC(=O)c1ccc(C)c(N=NN(C)C)c1` was tested. Which TGI [1] did it give?
A: > 100 µM

Q: What about the TGI [2] of the same compound?
A: > 100 µM

Q: What about the TGI [3] of the same compound?
A: > 100 µM

Q: What about the TGI [4] of the same compound?
A: > 100 µM

Q: And the TGI [6]?
A: > 100 µM

Q: And the TGI [7]?
A: > 100 µM

Q: What about the TGI [8] of the same compound?
A: > 100 µM

Q: What about the TGI [60] of the same compound?
A: > 100 µM

Q: What about the TGI [61] of the same compound?
A: > 100 µM

Q: What about the TGI [62] of the same compound?
A: > 100 µM

Q: And the TGI [10]?
A: > 100 µM

Q: What about the TGI [11] of the same compound?
A: > 100 µM

Q: What about the TGI [12] of the same compound?
A: > 100 µM

Q: And the TGI [13]?
A: > 100 µM

Q: And the TGI [14]?
A: > 100 µM

Q: And the TGI [63]?
A: > 100 µM

Q: And the TGI [15]?
A: > 100 µM

Q: And the TGI [16]?
A: > 100 µM

Q: And the TGI [18]?
A: > 100 µM

Q: And the TGI [19]?
A: > 100 µM

Q: What about the TGI [20] of the same compound?
A: > 100 µM

Q: And the TGI [21]?
A: > 100 µM

Q: And the TGI [64]?
A: > 100 µM

Q: What about the TGI [22] of the same compound?
A: > 100 µM

Q: And the TGI [23]?
A: > 100 µM

Q: And the TGI [65]?
A: > 100 µM

Q: And the TGI [24]?
A: > 100 µM

Q: And the TGI [29]?
A: > 100 µM

Q: And the TGI [30]?
A: > 100 µM

Q: And the TGI [31]?
A: > 100 µM

Q: And the TGI [32]?
A: > 100 µM

Q: And the TGI [33]?
A: > 100 µM

Q: And the TGI [35]?
A: > 100 µM

Q: And the TGI [36]?
A: > 100 µM

Q: And the TGI [37]?
A: > 100 µM

Q: And the TGI [38]?
A: > 100 µM

Q: What about the TGI [40] of the same compound?
A: > 100 µM

Q: And the TGI [41]?
A: > 100 µM

Q: And the TGI [42]?
A: > 100 µM

Q: And the TGI [43]?
A: > 100 µM

Q: And the TGI [44]?
A: > 100 µM

Q: What about the TGI [45] of the same compound?
A: > 100 µM

Q: And the TGI [46]?
A: > 100 µM

Q: And the TGI [47]?
A: > 100 µM

Q: And the TGI [48]?
A: > 100 µM

Q: What about the TGI [49] of the same compound?
A: > 100 µM

Q: And the TGI [50]?
A: > 100 µM

Q: And the TGI [51]?
A: > 100 µM

Q: And the TGI [52]?
A: > 100 µM

Q: And the TGI [53]?
A: > 100 µM

Q: What about the TGI [55] of the same compound?
A: > 100 µM

Q: What about the TGI [56] of the same compound?
A: > 100 µM

Q: What about the TGI [57] of the same compound?
A: > 100 µM

Q: What about the TGI [58] of the same compound?
A: > 100 µM

Q: What about the TGI [59] of the same compound?
A: > 100 µM

Q: What about the TGI [66] of the same compound?
A: > 100 µM
